“Also recorded” adds a separate entry of the source. Like-named read-outs stand apart in the source and are kept apart here.

The term % inhibition denotes the drop in the measured response relative to a control, in per cent. One may read the IC50 as the concentration that gives 50% inhibition. Usually inhibition stands for how much of the control response was suppressed. A high value points to a strong effect.

In one assay the test system is BZP rat brain. In words: NIMH PDSP radioligand binding, BZP rat brain. The following applies: 10 μM; radioligand [3H]Flunitrazepam; n=4. Here is the method: IC50 values in μM (Ki μM)^a. The targets in bold were inhibited by >35% at 10 μM.
For the next assay, the target named is T1, hGAT3 (Homo sapiens, UniProt P48066).
T1 construct: expressed in transfected cells
T1 sequence (P48066 1-632): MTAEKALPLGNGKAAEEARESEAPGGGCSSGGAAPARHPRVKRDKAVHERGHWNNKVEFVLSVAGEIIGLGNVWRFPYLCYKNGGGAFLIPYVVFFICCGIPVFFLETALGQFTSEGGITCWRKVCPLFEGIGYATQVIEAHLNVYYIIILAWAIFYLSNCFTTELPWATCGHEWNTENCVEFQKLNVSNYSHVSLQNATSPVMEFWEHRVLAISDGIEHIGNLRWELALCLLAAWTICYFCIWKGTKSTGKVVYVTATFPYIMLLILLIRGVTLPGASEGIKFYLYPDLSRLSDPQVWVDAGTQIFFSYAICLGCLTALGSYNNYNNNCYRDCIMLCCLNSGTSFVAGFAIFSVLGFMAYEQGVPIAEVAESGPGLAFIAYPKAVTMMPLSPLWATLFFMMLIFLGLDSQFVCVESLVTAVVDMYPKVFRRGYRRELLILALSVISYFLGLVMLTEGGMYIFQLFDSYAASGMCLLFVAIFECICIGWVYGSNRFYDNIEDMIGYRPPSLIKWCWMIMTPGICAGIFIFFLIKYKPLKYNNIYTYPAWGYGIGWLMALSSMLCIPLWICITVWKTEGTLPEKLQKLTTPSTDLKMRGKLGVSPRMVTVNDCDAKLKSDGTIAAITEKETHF
In words: [3H]GABA uptake at hGAT3 stably expressed in CHO cells. In kind it is cell-based. The following applies: N=3. Here is the method: (§1) The HEK-293 and Flp-In CHO cell lines stably expressing mouse (m) and human (h) GATs, respectively, have been described previously and were cultured accordingly. The tsA201 cell line was used for transient expression while the MDCK II cell line express BGT1 endogenously. Both cell lines were cultured as described. tsA201 cells were transfected with DNA constructs (8 μg per 10 cm dish if not otherwise mentioned) using 40 μL PolyFect transfection reagent according to the manufacturer’s protocol (Qiagen, Venlo, Netherlands). The DNA constructs encoding hBGT1, hGAT1-3 [36], the mutated constructs hBGT1 Q299 and hGAT3 L314Q described previously, and hBGT Y453A were synthesized and sequence validated by Genscript (NJ, USA).
(§2) The [^3H]GABA competition uptake assay was performed as previously described. A minor change, however, was introduced for uptake in MDCK II cells, in which 100 nM [^3H]GABA was used for a 15 min incubation period at 37 °C instead of 30 nM [^3H]GABA and 3 min incubation. Studies related to the inhibition curves with GABA and BPDBA at hBGT1 were obtained both with and without the presence of 10 μM ATP during the [^3H]GABA uptake assay.
(§3) The [^3H]GABA uptake data was normalized to the percentage of total uptake in the individual experiments in the presence of the lowest compound concentration or no compound present. Data presented is the pooled data of at least three independent experiments with three technical replicates. Concentration–response curves (CRCs) were fitted with GraphPad Prism (version 8.2.1, Yosemite, GraphPad Software, San Diego, CA, USA) by non-linear regression to the sigmoidal concentration response model: Y=Bottom+(Top-Bottom)/1+10^LogIC50-X∗nH where Top is the Top plateau, Bottom is the Bottom plateau, X is the logarithm of the concentration of the compound, LogIC50 is the concentration giving a response halfway between Top and Bottom,and nH is the Hill slope.
(§4) The best fit for CRCs obtained with the [^3H]GABA uptake assay was identified by the extra-sum-of-squares F test (for convenience referred to as F test).

Another assay concerns the target T2, hGAT1 (Homo sapiens, UniProt P30531).
T2 construct: expressed in transfected cells
In words: [3H]GABA uptake at hGAT1 stably expressed in CHO cells. In kind it is cell-based. The following applies: for IC50: CHO. The protocol:
as §1, §2, §3, §4

A further assay has as its target T3, hBGT1 (Homo sapiens, UniProt P48065).
T3 construct: expressed in transfected cells; host or cells: tsA201 (transient)
T3 sequence (P48065 1-614): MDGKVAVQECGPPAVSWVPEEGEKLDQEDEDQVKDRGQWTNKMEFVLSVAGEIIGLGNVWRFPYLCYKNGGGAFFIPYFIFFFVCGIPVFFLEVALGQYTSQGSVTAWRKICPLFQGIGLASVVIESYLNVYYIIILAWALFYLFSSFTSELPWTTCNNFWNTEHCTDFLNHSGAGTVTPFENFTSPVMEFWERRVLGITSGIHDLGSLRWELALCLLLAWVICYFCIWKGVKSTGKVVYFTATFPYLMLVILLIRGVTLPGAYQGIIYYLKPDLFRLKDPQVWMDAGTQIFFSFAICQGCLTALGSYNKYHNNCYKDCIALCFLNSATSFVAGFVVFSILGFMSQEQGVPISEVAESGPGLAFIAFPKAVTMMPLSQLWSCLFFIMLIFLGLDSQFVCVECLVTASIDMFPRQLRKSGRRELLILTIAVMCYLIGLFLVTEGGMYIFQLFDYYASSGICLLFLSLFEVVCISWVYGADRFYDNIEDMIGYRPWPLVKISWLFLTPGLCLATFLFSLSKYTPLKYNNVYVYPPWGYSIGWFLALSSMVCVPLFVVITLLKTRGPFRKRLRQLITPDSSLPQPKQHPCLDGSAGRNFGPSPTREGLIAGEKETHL
The experiment in a line: [3H]GABA uptake at hBGT1 stably expressed in CHO cells. In kind it is cell-based. Here is the method: as §1, §2, §3, §4

For a further assay, the target named is T4, D1 (Homo sapiens, UniProt P21728).
T4 construct: purchased NIMH Psychoactive Drug Screening Program (PDSP)
T4 sequence (P21728 whole entry): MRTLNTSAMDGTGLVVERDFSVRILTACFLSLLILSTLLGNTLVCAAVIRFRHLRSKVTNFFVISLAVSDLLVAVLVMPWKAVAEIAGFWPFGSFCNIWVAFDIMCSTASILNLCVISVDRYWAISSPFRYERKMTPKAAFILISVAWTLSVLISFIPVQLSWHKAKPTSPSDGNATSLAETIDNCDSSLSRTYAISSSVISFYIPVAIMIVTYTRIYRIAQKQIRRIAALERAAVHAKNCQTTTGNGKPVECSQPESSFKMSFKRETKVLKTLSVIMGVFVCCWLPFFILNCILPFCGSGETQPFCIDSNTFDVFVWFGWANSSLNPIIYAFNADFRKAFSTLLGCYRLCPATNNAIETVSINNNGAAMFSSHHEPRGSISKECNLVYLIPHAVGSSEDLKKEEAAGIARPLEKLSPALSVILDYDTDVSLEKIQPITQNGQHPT
The experiment in a line: NIMH PDSP radioligand binding, D1. The following applies: radioligand [3H]SCH23390, n=4.

The next assay concerns the target T5, D2 (Homo sapiens, UniProt P14416).
T5 construct: purchased NIMH Psychoactive Drug Screening Program (PDSP)
The experiment in a line: NIMH PDSP radioligand binding, D2. Particulars: radioligand [3H]N-methylspiperone, n=4.

A further assay deals with T6, Beta3 (Homo sapiens, UniProt P13945).
T6 construct: purchased NIMH Psychoactive Drug Screening Program (PDSP)
T6 sequence (P13945 whole entry): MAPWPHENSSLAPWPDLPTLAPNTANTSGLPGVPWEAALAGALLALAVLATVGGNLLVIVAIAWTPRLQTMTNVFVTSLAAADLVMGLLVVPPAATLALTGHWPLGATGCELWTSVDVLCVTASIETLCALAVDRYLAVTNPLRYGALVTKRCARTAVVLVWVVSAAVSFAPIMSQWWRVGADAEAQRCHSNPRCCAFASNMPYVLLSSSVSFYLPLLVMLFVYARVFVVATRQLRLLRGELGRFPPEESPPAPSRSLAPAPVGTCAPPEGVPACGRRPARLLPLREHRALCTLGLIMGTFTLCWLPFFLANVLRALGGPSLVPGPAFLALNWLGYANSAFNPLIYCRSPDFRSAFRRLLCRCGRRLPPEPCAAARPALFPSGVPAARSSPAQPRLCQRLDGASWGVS
In words: NIMH PDSP radioligand binding, Beta3. The following applies: radioligand [3H]CGP12177, n=4.

T2 sequence (P30531 whole entry): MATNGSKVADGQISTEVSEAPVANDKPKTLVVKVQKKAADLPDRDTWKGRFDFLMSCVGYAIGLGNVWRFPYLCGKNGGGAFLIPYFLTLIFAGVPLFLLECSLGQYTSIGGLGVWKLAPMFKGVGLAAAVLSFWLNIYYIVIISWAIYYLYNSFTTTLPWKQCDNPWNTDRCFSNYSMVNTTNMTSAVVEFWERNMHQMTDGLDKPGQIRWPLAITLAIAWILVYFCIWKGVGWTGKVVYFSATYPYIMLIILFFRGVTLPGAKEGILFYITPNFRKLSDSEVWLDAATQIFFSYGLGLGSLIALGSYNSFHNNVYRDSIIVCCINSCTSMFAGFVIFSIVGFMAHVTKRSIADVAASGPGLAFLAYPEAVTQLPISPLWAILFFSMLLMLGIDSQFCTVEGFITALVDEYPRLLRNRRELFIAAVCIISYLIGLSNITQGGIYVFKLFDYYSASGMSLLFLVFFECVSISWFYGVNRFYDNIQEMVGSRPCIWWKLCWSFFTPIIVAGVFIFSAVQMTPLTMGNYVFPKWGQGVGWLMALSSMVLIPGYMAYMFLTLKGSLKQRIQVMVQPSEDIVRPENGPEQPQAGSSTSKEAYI
T5 sequence (P14416 whole entry): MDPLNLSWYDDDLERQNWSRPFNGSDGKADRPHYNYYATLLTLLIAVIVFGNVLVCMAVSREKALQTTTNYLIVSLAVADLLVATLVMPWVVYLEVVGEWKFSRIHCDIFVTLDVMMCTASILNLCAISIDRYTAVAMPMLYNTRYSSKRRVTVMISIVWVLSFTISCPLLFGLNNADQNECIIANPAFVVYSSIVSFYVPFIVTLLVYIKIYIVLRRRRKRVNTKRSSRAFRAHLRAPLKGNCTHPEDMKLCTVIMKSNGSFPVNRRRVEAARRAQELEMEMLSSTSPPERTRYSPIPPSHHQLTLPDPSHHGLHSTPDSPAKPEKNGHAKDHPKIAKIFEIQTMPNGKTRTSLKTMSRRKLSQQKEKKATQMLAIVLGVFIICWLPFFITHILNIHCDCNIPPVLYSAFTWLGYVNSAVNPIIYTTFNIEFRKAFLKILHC

As for `Cc1ccsc1C(=CCCN(C)[C@H]1CCCC[C@H]1C(=O)O)c1sccc1C` [SBV2-114, (1R,2S)-2-((4,4-bis(3-methylthiophen-2-yl)but-3-en-yl)(methyl)amino)cyclohexanecarboxylic acid], the “% inhibition” value with BZP rat brain amounted to 9.1%. The Frac turned out to be 0.09 on hGAT3 (biphasic fit, CHO) and 0.10 at hBGT1 (biphasic fit, N=2, CHO). The 50% inhibitory concentration (IC50) at hGAT3 (biphasic fit, CHO, read-out: IC50, high affinity component) is 2.09 µM; at hGAT3 (read-out: IC50, low affinity component, biphasic fit, CHO), 603 µM; at hGAT1 (ambiguous fit, N=2), 566 µM; at hGAT1 (monophasic fit, N=1), 476 µM; on hBGT1 (IC50, high affinity component, biphasic fit, N=2 of four experiments, CHO) it was 0.05 µM; against hBGT1 (pIC50 ± S.E.M., high affinity component, biphasic fit, N=2, CHO), 0.0513 µM. The IC50 was 490 µM at hBGT1 (read-out: IC50, low affinity component, biphasic fit, N=2, CHO) and 447 µM on hBGT1 (single IC50, N=2, fit not given, CHO, read-out: IC50). Also, the Fit result at hGAT3 (preferred model) is “Biphasic”; at hGAT1 (preferred model per experiment) it was “Ambiguous; also recorded: Monophasic”; at hBGT1 (preferred model, N=2), “Biphasic”. Further, the inhibition at 10 µM on D1 was determined as 14%; on D2, 12.3%; on Beta3 it was 8.3%.

These data come from article PMC7297817, “Pharmacological Characterization of a Betaine/GABA Transporter 1 (BGT1) Inhibitor Displaying an Unusual Biphasic Inhibition Profile and Anti-seizure Effects” (Neurochemical Research, 2020).
